Assay results from patent US20200352918A1, “COMPOUNDS AND METHODS FOR TREATING OR PREVENTING FIBROSIS” (priority 2019, published 2020).
Entries after “also recorded” stand apart in the source; their conditions may differ.

How the values were obtained:
Assay type in all cases: cell-based, human
iFA model [1] = assay: In situ cell elasticity by atomic force microscopy in the iFA model; conditions: AA5 vs DMSO-treated iFA model
Protocol: Tapping mode AFM using the Bruker BioScope Catalyst Atomic Force coupled with Zeiss LSMS Confocal Fluorescence Microscope was used on the cells at 37° C. in cell culture media. AFM deflection images of cells were used in the imaging experiment. In the force measurement, sharp silicon nitride AFM probes (tip radius, 20 nm) were employed (Bruker Corp., USA). The spring constants of AFM tips were calibrated to be 0.10-0.11 N m^−1 and deflection sensitivities were 45-50 nm V^−1, using Thermo K Calibration (Agilent Technologies, USA). The approaching/retracting speed of the AFM tip during the force curve measurement was 6 μm s^−1. Force-distance curves were recorded to obtain cell elasticity (Young's modulus, E) of individual cells. For each time point, at least 20 single cells, 20 cells at the base of the iFA and 20 cells at the tip of the scar were measured with over 15 force-distance curves per cell to obtain significant results. The Young's modulus was calculated via the Scanning Probe Image Processor (SPIP) software (Image Metrology, Denmark) by converting the force-distance curves to force-separation curves and fitting the Sneddon variation of the Hertz model, which describes conical tips indenting elastic samples.

SSEA4+ cells = assay: FACS of SSEA4+ cells in the iFA model; conditions: AA5 treatment
Protocol: For determination of various cell populations in the iFA model, the cells were dissociated using Accumax (Stem Cell Technologies) for 5 minutes, pelleted and resuspended in FACS buffer (3% Fetal Bovine Serum/PBS). 1×10^6 cells were incubated with a the appropriate conjugated antibody listed in Table 3 for 20 minutes at 4° C. under shaking conditions. The cells were washed with the FACS buffer and acquired using a flow cytometer (BD LSRII) and analysed using FACS Diva and FlowJo softwares.

iFA model [2] = assay: Proliferation by EdU labeling in the iFA model; conditions: AA5-prevention vs DMSO, 6 h EdU
Protocol: Cells were incubated with 10 μM EdU (Invitrogen) at specified time points of culture for 6 hrs, fixed with 4% PFA, and detected by staining with Alexa594-azide according to the manufacturer's instructions. The cells were additionally counterstained with Vimentin and/or α-SMA and DAPI.

[3] = test system: iFA phenotype of mesenchymal-like cells on 13 kPa hydrogels; assay: iFA resolution screen (reversal of fibrosis) in the iFA model
Protocol: Signal-to-background (S/B) ratio, standard variation and variation coefficients were calculated as the signal of DMSO treated wells divided by the signal of the hit compound (AA5) treated wells. Z′ values were used to measure assay quality which was calculated by the formula of Z′=1−3(SDTotal+SDBackground)/(MeanTotal−MeanBackground)(Inglese et al., 2006) where SDTotal and MeanTotal are the standard deviation and mean of signal for DMSO treated wells, and SDBackground and MeanBackground are the standard deviation and mean of signal for AA5 treated wells. Data normalization and curve fitting were performed as previously reported (Kariv et al., 1999, J Biomol Screen 4, 27-32.). Z′ values were obtained for the number of cellular aggregates and also calculated a phenotypic cell index as the product of cell number x area/Log(number of iFA aggregates+5). Secondary screening using α-SMA and collagen deposition was employed to further ensure efficacy and resolution of the iFA phenotype of the compounds. For the resolution screen, cells were seeded in a 96-well plate as mentioned above and compounds were added at day 13 to analyze their capacity to resolve the iFA phenotype using the same readouts as above. Dose response experiments were carried out as in the secondary screen but with at least 12 steps of a 1:1 dilution resulting in final compound concentrations from 500 μM to high nanomolar ranges.
The primary assay involved plating together the iPSCs and Table 1 compounds sourced from the library on day 1 on the hydrogel and examining the phenotype on day 7 of the culture as described herein. The secondary screen repeated the assay using compound sourced commercially or from additional library materials. The dose response refers to a 20 point dose course that ranges from picomolar to millimolar concentrations. […] As described herein, the cellular phenotype parameters evaluated included size, fluorescence intensity of the iFA phenotype, the shape factor of the cells/aggregates, and the cells' viability in the presence of viability dyes (Calcein AM).

Question: With Cc1c(C(=O)Nc2nc3ccccc3s2)sc2nc3cc4c(cc3cc12)OCO4 [AA5] as the compound, how does the Cell stiffness (iFA model [1]) read?
Answer: significantly decreased

Question: And the “Percentages of SSEA4+ cells” value (SSEA4+ cells)?
Answer: attenuated

Question: What about the “Proliferation (EdU)” value (iFA model [2]) of the same compound?
Answer: no effect on proliferation; also recorded: did not display any significant difference in the proliferation rate

Question: What about the “Levels of Collagen I and α-SMA (resolution of iFA phenotype)” value ([3]; AA5-resolution) of the same compound?
Answer: reduction

Question: And the Reversal of fibrosis ([3]; phenotype formed over 10 days, then compounds added)?
Answer: Yes
